Test results taken from patent US20080199846A1, “Poultry semen extender” (priority 2007, published 2008).

System: 24 h-stored turkey semen
Experiment: Fertility evaluation: artificial insemination of hens with 24 h-stored turkey semen
Type: in vivo
Conditions: for fertility of 24 h-stored semen versus control stored semen: 0.5, 2.5 or 10.0 mg/ml PC, wks 1-7 of egg production
Source text: Materials and Methods. Animals: LargeWhite breeder poults were purchased from a primary breeder and maintained under standard management conditions during the brooding and growing periods. At 28 wk of age, toms were photostimulated by increasing light exposure from a 12:12 to a 14:10 light:dark cycle to initiate semen production. Using the abdominal massage semen collection method (Burrows, W. H., and J. P. Quinn, Poult. Sci., 14: 251-254 (1935)), toms were pre-milked at 30 wk of age and then screened for semen quality at 31 and 32 wk of age prior to being designated to sperm storage treatment groups. At 32 wk of age, hens were photostimulated by increasing the daily light exposure from 6:18 to 14:10 h (light:dark) to initiate ovarian development and egg production. Hens were inseminated on Days 10 and 12 after photostimulation and then once per week for the next 12 wk of egg production. A total of 10 toms and 76 hens were used for each experimental replicate.
Semen Collection, Evaluation and Storage: Semen was collected weekly from toms and evaluated for volume, sperm concentration, sperm viability, and sperm mobility. Fresh semen was aliquoted for the control and 3 sperm treatments. Control semen was extended 1:1 with Beltsville Poultry Semen Extender (BPSE), while treated semen was extended 1:1 with BPSE supplemented with 0.5, 2.5 or 10.0 mg/ml phosphatidylcholine (PC). Extended semen was transferred to 48-well culture plates. Multiwell plates were placed in a room temperature water bath on an orbital shaker (125 rpm) and slowly cooled to 4° C. with lids loosely fitted to ensure air availability during agitation. Semen was maintained under these conditions for 24 h.
Fertility Evaluation: A total of 304 hens (76/replicate) were artificially inseminated weekly with semen stored with 0.5 mg PC/ml (n=19), 2.5 mg PC/ml (n=19), 10 mg PC/ml (n=19) or without PC (control, n=19). An additional set of hens were inseminated weekly with stored semen containing 2.5 mg/ml PC and either 0.5 mM, 5.0 mM, or 50 mM ZnCl2; prior to insemination, semen stored in the presence of ZnCl2 was treated with EDTA to chelate Zn ions and restore sperm motility. The inseminant dose for all treatments was 150×10^6 sperm. This sperm number is less than that typically inseminated for commercial production; however, I desired a system sufficiently sensitive to detect even small changes in fertility due to sperm treatment. Eggs were candled after 7 d of incubation to determine true fertility and allowed to hatch to determine hatchability. Fertility trials were replicated 4 times using different flocks.
Statistical Analysis: Prior to analysis, data were checked to determine if a transformation was necessary. As expected, variables scored as percents (e.g., fertility) required transformation. I used the standard variance stabilizing arcsine transformation, y=arcsine (√(x)), where x represents the data, recorded as a proportion, and y is the scale used in the analysis. This transformation stabilized the variances sufficiently to proceed with an analysis in a mixed models framework. Software for conducting mixed models analyses in non-Gaussian frameworks, e.g., logistic regression, is not yet readily available. The mixed models I developed, estimated using Proc Mixed (SAS Institute, 1999), considered sperm treatment and week of study as fixed factors, with hen as a random factor. In addition, since data were taken from the same individuals repeatedly, thus inducing correlation, I allowed for within-individual time series correlation using an autoregressive structure. To ensure that my sample size and design had sufficient power to accurately determine the effects of the sperm treatments, I did a small simulation study prior to finalizing the design. Power was reassessed once the study was complete, and I report those results below. I used the default REML estimation method in Proc Mixed. […]

| Compound | fertility rates versus 5.0 or 50 mM ZnCl2 (0.5 mM ZnCl2, semen with 2.5 mg/ml PC, EDTA before insemination, p<0.05) | true fertility of 24 h-stored semen versus other ZnCl2 treatments or control semen (5.0 mM ZnCl2, wks 1-7, p<0.05) | hens producing 100% fertile eggs versus any other stored semen treatment (2.5 mg/ml PC, first 7 wks of egg production, p<0.05) | percentage of hens laying all (100%) fertile eggs versus any other sperm treatment group (2.5 mg/ml PC, wks 2-7, p<0.05) | predictability of fertility versus the other concentrations (10 mg/ml) | fertility rates during egg production (10 mg/ml PC treatment) | fertility rates versus 0.5 or 2.5 mg/ml PC treatments (10 mg/ml PC, at 1, 2 8, 10, 11, and 12 wks, p<0.05) | percentage of hens laying all unfertilized eggs versus any other sperm treatment group (10.0 mg/ml PC, wks 4 and 10, p<0.05) | fertility of 24 h-stored semen versus control stored semen (p<0.05) | fertility of 24 h-stored semen versus control stored semen (p<0.05, listed as phosphatidycholine) | fertility of stored turkey semen (0.5 or 2.5 mg/ml, first 12 wks of egg production) | fertility rates, 0.5 versus 2.5 mg/ml PC treatments (throughout egg production except wks 7 and 12, p>0.05) | fertility of 2.5 mg/ml PC treatment versus 0.5 mg/ml (wks 7 and 12, p<0.05) |
| --- | --- | --- | --- | --- | --- | --- | --- | --- | --- | --- | --- | --- | --- |
| [Cl-].[Cl-].[Zn+2] [ZnCl2] | Higher | higher |  |  |  |  |  |  |  |  |  |  |  |
| phosphatidylcholine [PC] |  |  | more | more | less predictable fertility | varied widely | Lower | more | improved | higher | improved | similar | higher |
